Results from patent US20240374879A1, “METHODS AND COMPOSITIONS TO REDUCE CELLULAR DEPOSITION, AND HYDROCEPHALUS SHUNT FAILURE” (Wayne State University, priority 2021, published 2024).

Experiments:
[1] = test system: Human astrocyte cells; assay: Delivery Method: immunofluorescence (DAPI, GFAP) of astrocytes, GIT 27 attached to PDMS or in suspension; assay type: cell-based
Experimental: Delivery Method: Following the nanodrop experiment, it was determined that the minimum concentration necessary to attach GIT 27 to the surface of the PDMS was 1000 μg/mL to display any attachment and release from the catheter. […] Using this concentration for sufficient surface coating, human astrocyte cells were cultured onto PDMS discs coated with GIT 27. Samples were also tested by adding GIT 27 at various concentrations in suspension within the cell culture media. Attached GIT 27 samples were conducted at concentrations 1000 and 3000 μg/mL, and for the in suspension concentrations 5, 50, and 1000 μg/mL in astrocyte media were used.
Immunofluorescence was performed using glial fibrillary acidic protein (GFAP) and 4′,6-diamidino-2-phenylindole (DAPI) solution (ThermoFisher). GFAP primary and secondaries were diluted to a ratio of 1:1000 and 5:1000, respectfully, in 0.4% Triton-X in PBS (w/v). Samples were incubated for 24 hours in each solution. After rinsing the samples with PBS, the samples were incubated in a 1:1000 DAPI solution in 0.4% Triton X solution for 30 minutes. Samples were then imaged submerged in PBS using a confocal microscope at 20× magnification and analyzed using Imaris software.

[2] = test system: macrophage toll-like receptor (TLR) 4 and TLR 2/6 signaling pathway; conditions: cited from earlier work
[3] = Solubility of GIT 27; assay type: physicochemical
[4] = 1000 μg/mL GIT 27 in suspension, qualitative

For O=C(O)CC1CC(c2ccccc2)=NO1 (stereo not drawn) [GIT 27, 4,5-Dihydro-3-phenyl-5-isoxazoleacetic acid], the “astrocyte cell bodies (GFAP) labeling compared to all other groups” value [1, 4] was “lowest amount”, the “immunofluorescent total cell count (DAPI) labeling compared to all other groups” value [1, 4] was “lowest amount” and the “GFAP levels compared to controls with no GIT 27 exposure” value ([1]; plasma etched samples with GIT 27 attached to the surface) was “increased levels”. For the same compound, the “secretion of pro-inflammatory cytokines IL-1β, IL-10 and IFN-γ” value [2] was “reduces”, the TNF-α secretion ([2]; macrophages) was “inhibits” and the solubility [3] was “only soluble in DMSO”.
